{"source": "patent US8568997B2", "about": "“Detection system and uses therefor” (Dimerix Bioscience Pty Ltd., priority 2006, dated 2013)", "type_in_all_cases": "cell-based", "key": {"[1]": {"system": "thyrotropin releasing hormone receptor (TRHR)", "assay": "eBRET/BRET beta-arrestin recruitment to TRHR/Rluc without IG3 (pcDNA3) in HEK293 cells", "description": "eBRET measurements at 37 C were carried out on HEK293 cells transiently co-expressing TRHR/Rluc and barr2/Venus with either pcDNA3, orexin receptor 2 (OxR2), CXC chemokine receptor 2 (CXCR2), hemagglutin epitope-tagged melanocortin receptor 3 or 4 (HA-MC3R or HA-MC4R), or dopamine D2 receptor long form (D2LR) or short form (D2SR) following the treatment of each with their respective ligands.\nLigand treatments were either OxA or TRH only or both OxA and TRH combined. Phosphate-buffered saline (PBS) was used as a vehicle control.\nLigand treatments were either OxA or TRH only. Phosphate-buffered saline (PBS) was used as a vehicle control.\nBRET measurements at 37 C were carried out on HEK293 cells transiently co-expressing TRHR/Rluc, barr2/Venus and pcDNA3 with increasing doses of TRH. Sigmoidal dose response curves were plotted using Prism (Graph Pad), either assuming a Hill slope of 1 or allowing for variable slope. The EC50 and Hill slope values for the variable slope curve are included in a table in the graph.\nTRHR is IG1, Rluc is RC1, barr1 is IG2, EGFP is RC2 and OxR2 is IG3. The same amount of EGFP/barr1 (IG2-RC2) is transfected for each experiment.\nCells were seeded in 6-well plates at a density of approximately 630,000 cells/well (HEK293FT) or approximately 150,000 cells/well (COS-7) and maintained at 37° C., 5% CO2 in Complete Media (DMEM containing 0.3 mg/ml glutamine, 100 IU/ml penicillin and 100 μg/ml streptomycin (Gibco)) supplemented with 10% fetal calf serum (FCS; Gibco). Transient transfections were carried out 24 h after seeding using GeneJuice (Novagen) or Metafectene (Biontex) according to manufacturer instructions. 24 h post-transfection, cells were washed with PBS, detached using 0.05% trypsin/0.53 mM EDTA, resuspended in HEPES-buffered phenol red free Complete Media containing 5% FCS and added to a poly-L-lysine-coated white microplate (Nunc). 48 h post-transfection, eBRET assays were carried out following pre-incubation of cells with EnduRen™ (Promega) at a final concentration of 30-40 μM, at 37° C., 5% CO2 for 2 h. For original BRET studies, the HEPES-buffered phenol red free Complete Media was replaced with PBS and coelenterazine h (Molecular Probes) added to a final concentration of 5 μM immediately prior to commencing the assay. BRET measurements were taken at 37° C. using the Victor Light plate reader with Wallac 1420 software (Perkin-Elmer). Filtered light emissions were sequentially measured for 3-5 s in each of the ‘donor wavelength window’ (400-475 nm) and ‘acceptor wavelength window’ (>500 nm for EGFP or 520-540 nm for EYFP, Topaz (TYFP) or Venus). The BRET signal observed between interacting proteins is normalized by subtracting the background BRET ratio. This can be done in one of two ways (see Pfleger et al. (2006) Cell Signal 18, 1664-1670; Pfleger et al. (2006) Nat Protoc 1, 336-344): 1) the ratio of light emission through the ‘acceptor wavelength window’ over the 400-475 nm emission for a cell sample containing only the donor construct is subtracted from the same ratio for a sample containing the interacting acceptor and donor fusion proteins; 2) the ratio of light emission through the ‘acceptor wavelength window’ over the 400-475 nm emission for a cell sample treated with vehicle is subtracted from the same ratio for a second aliquot of the same cell sample treated with ligand. In the following examples, the first calculation will be used, unless the signal is described as the ligand-induced BRET ratio'."}, "[2]": {"system": "TRHR335 (truncated TRHR) with OxR2", "assay": "eBRET/BRET between TRHR335/Rluc and labelled beta-arrestin with OxR2 as IG3", "experimental": "Cells were seeded in 6-well plates at a density of approximately 630,000 cells/well (HEK293FT) or approximately 150,000 cells/well (COS-7) and maintained at 37° C., 5% CO2 in Complete Media (DMEM containing 0.3 mg/ml glutamine, 100 IU/ml penicillin and 100 μg/ml streptomycin (Gibco)) supplemented with 10% fetal calf serum (FCS; Gibco). Transient transfections were carried out 24 h after seeding using GeneJuice (Novagen) or Metafectene (Biontex) according to manufacturer instructions. 24 h post-transfection, cells were washed with PBS, detached using 0.05% trypsin/0.53 mM EDTA, resuspended in HEPES-buffered phenol red free Complete Media containing 5% FCS and added to a poly-L-lysine-coated white microplate (Nunc). 48 h post-transfection, eBRET assays were carried out following pre-incubation of cells with EnduRen™ (Promega) at a final concentration of 30-40 μM, at 37° C., 5% CO2 for 2 h. For original BRET studies, the HEPES-buffered phenol red free Complete Media was replaced with PBS and coelenterazine h (Molecular Probes) added to a final concentration of 5 μM immediately prior to commencing the assay. […] Filtered light emissions were sequentially measured for 3-5 s in each of the ‘donor wavelength window’ (400-475 nm) and ‘acceptor wavelength window’ (>500 nm for EGFP or 520-540 nm for EYFP, Topaz (TYFP) or Venus). The BRET signal observed between interacting proteins is normalized by subtracting the background BRET ratio."}, "OxR2": {"molecular_target": "T1, OxR2 (Homo sapiens, UniProt O43614)", "T1 construct": "expressed in transfected cells; host or cells: HEK293", "T1 sequence (O43614 1-444)": "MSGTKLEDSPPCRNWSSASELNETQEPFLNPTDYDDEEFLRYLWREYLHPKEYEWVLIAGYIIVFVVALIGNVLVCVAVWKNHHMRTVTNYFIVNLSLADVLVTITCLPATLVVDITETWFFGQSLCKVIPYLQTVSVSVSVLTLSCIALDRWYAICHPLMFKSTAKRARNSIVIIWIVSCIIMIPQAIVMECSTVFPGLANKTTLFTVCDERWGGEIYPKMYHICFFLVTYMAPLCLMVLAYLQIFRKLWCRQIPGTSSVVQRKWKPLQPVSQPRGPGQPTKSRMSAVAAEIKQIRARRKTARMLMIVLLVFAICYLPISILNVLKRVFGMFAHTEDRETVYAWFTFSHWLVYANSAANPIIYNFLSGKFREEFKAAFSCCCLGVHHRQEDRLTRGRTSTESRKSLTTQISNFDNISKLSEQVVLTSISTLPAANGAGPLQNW", "assay": "BRET/eBRET beta-arrestin 2 recruitment to OxR2/Rluc (or Rluc8) without IG3 (pcDNA3)", "conditions": "OxR2/Rluc8 + barr2/Venus + pcDNA3", "description": "(§1) Phosphate-buffered saline (PBS) was used as a vehicle control.\n(§2) Cells were seeded in 6-well plates at a density of approximately 630,000 cells/well (HEK293FT) or approximately 150,000 cells/well (COS-7) and maintained at 37° C., 5% CO2 in Complete Media (DMEM containing 0.3 mg/ml glutamine, 100 IU/ml penicillin and 100 μg/ml streptomycin (Gibco)) supplemented with 10% fetal calf serum (FCS; Gibco). Transient transfections were carried out 24 h after seeding using GeneJuice (Novagen) or Metafectene (Biontex) according to manufacturer instructions. 24 h post-transfection, cells were washed with PBS, detached using 0.05% trypsin/0.53 mM EDTA, resuspended in HEPES-buffered phenol red free Complete Media containing 5% FCS and added to a poly-L-lysine-coated white microplate (Nunc). 48 h post-transfection, eBRET assays were carried out following pre-incubation of cells with EnduRen™ (Promega) at a final concentration of 30-40 μM, at 37° C., 5% CO2 for 2 h. For original BRET studies, the HEPES-buffered phenol red free Complete Media was replaced with PBS and coelenterazine h (Molecular Probes) added to a final concentration of 5 μM immediately prior to commencing the assay. […] Filtered light emissions were sequentially measured for 3-5 s in each of the ‘donor wavelength window’ (400-475 nm) and ‘acceptor wavelength window’ (>500 nm for EGFP or 520-540 nm for EYFP, Topaz (TYFP) or Venus). […]"}, "OxR2 with HA-TRHR": {"molecular_target": "T2, OxR2 with HA-TRHR (Homo sapiens, UniProt O43614+P34981)", "T2 construct": "expressed in transfected cells; host or cells: HEK293", "T2 sequence (O43614 1-444)": "T1 sequence (O43614 1-444)", "T2 sequence (P34981 1-398)": "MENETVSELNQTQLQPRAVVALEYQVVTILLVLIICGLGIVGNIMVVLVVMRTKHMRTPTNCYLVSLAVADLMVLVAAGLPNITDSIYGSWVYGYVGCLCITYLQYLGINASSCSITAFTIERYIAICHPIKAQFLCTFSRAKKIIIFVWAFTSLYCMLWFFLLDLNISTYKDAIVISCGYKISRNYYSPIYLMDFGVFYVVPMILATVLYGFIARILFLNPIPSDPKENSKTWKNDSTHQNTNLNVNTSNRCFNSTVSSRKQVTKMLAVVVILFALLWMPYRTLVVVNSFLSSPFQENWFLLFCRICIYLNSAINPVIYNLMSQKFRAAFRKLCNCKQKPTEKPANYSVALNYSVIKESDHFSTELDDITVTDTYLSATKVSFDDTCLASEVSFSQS", "assay": "eBRET between OxR2/Rluc8 and barr2/Venus with HA-TRHR as IG3", "description": "as §1, §2"}}, "note": "“Also recorded” adds a separate entry of the source.", "data": [{"smiles": "NC(=O)[C@@H]1CCCN1C(=O)[C@H](Cc1cnc[nH]1)NC(=O)[C@@H]1CCC(=O)N1", "note": "[TRH, pGlu-His-Pro-NH2]", "values": [{"measurement": "time to eBRET signal peak", "setting": "[1]; HEK293, TRHR/Rluc + barr2/Venus + pcDNA3, ligand 10^−6M", "value": "Within the first minute"}, {"measurement": "eBRET signal peak", "setting": "[1]; HEK293, TRHR/Rluc + barr2/Venus + pcDNA3, ligand 10^−6M, 37 C", "value": "greater than 0.17"}, {"measurement": "eBRET signal", "setting": "[1]; TRHR/Rluc + EGFP/barr (barr1, barr2 or barr1R169E), no OxR2", "value": "rapid stimulation of the eBRET signal; also recorded: rapid increase in eBRET signal"}, {"measurement": "dose-response Hill slope", "setting": "[1]; TRHR/Rluc + barr2/Venus + pcDNA3, FIG. 10", "value": "approximately 1"}, {"measurement": "eBRET signal", "setting": "[2]; TRHR335/Rluc + EGFP/barr1 + OxR2", "value": "no eBRET signal above baseline"}, {"measurement": "BRET signal, dose response curves", "setting": "[2]; TRHR335/Rluc + barr2/Venus + OxR2", "value": "does not result in a BRET signal"}, {"measurement": "ligand-induced eBRET signal", "setting": "OxR2", "value": "No ligand-induced eBRET signal"}, {"measurement": "ligand-induced eBRET signal", "setting": "OxR2 with HA-TRHR", "value": 0.05}]}]}
